Measured values: patent publication US11021445B2, “Carboxylic acid derivative as AT2R receptor antagonist” (SHANDONG DANHONG PHARMACEUTICAL CO., LTD., priority 2017, dated 2021)
pIC50: −log10 of the molar value. Like-named read-outs stand apart in the source and are kept apart here.

Columns and labels:
[1] = Plasma protein binding rate (PPB) test, equilibrium dialysis; assay type: in vitro ADME, Sprague-Dawley rats; conditions: Sprague-Dawley, rat, 37°C, read-out: Plasma Protein Binding (%) SD Rat Plasma (converted)
Experimental: (§1) In vitro protein binding rates of 0.2 μM, 2 μM, 10 μM of test compounds with Sprague-Dawley rats, beagle dogs, human plasma were determined by equilibrium dialysis.
(§2) The experiment will use a 96-well equilibrium dialysis plate (HTDialysis device) to determine the plasma protein binding rate of the to-be-tested compound and the control compounds.
(§3) Prior to the start of the experiment, the dialysis membrane was pretreated according to the instructions for use and the dialysis unit was assembled as required.
(§4) Blank plasma was taken from CD-1 mice, Sprague-Dawley rats, Beagle dogs, cynomolgus monkeys and humans (an anticoagulant is EDTA-K2, which is a commercial product purchased, or is collected and prepared by the Drug Evaluation Department of Wuxi AppTech, and is stored in a refrigerator below −60° C. before use). A certain volume of the to-be-tested compound or the control compound working solution was added to prepare plasma samples of the compound to be tested at a concentration of 0.2, 2, 10 μM and plasma samples of the control compound at a concentration of 2 μM (n=1). The organic phase content was ≤1%. First, a certain volume of a plasma sample containing the to-be-tested compound and the control compound was taken out into the sample receiving plate as a sample at zero time (T0 sample, n=3); secondly, a plasma sample containing the to-be-tested compound and the control compound was added to one side of the dialysis membrane (plasma end, n=3), and a certain volume of dialysis buffer (buffer end, n=3) was added to the other side of the dialysis membrane; then the dialysis plate was placed in a humidified incubator with 5% CO2 for incubation for 4 hours at 37±1° C.
(§5) After the incubation, a certain volume of the dialyzed buffer sample (F sample) and the dialyzed plasma sample (T sample) were transferred to the sample receiving plate, and all samples were subjected to protein precipitation for LC/MS/MS analysis. And the dissociation rate of the compound (% Unbound) was calculated by the following formula: % Unbound=100*[F]/[T], % Bound=100−% Unbound. Wherein, % Unbound is the dissociation rate of the compound; % Bound is the binding rate of the compound; [F] is the concentration of the compound at the buffer end of the dialysis plate; [T] is the concentration of the compound at the plasma end of the dialysis plate; and the experimental results are shown in Table 7.

[2] = as above; assay type: in vitro ADME; conditions: human, 37°C
Experimental: as §1, §2, §3, §4, §5

[3] = Determination of kinetic solubility; assay type: physicochemical; conditions: buffer solution pH 7.4, aqueous buffer, kinetic from dmso stock, pH 7.4, 24 hours at room temperature, theoretical maximum 200 μM
Experimental: The to-be-tested compound was dissolved in DMSO to prepare a 10 mmol/L stock solution. 980 μL of dissolution medium was pipetted into a 2 mL screw-capped glass vial by using a pipette (Eppendorf Research Company). 20 μL of the stock solution of each test compound and the QC sample were added to a buffer solution corresponding to a kinetic detection solution of pH 7.4. The final concentrations of the test compound and DMSO solution were 200 μM and 2%, respectively. The cover of the medicine bottle was screwed. The theoretical maximum concentration is 200 μM. The mixture was shaken at 880 rpm for 24 hours at room temperature. The vial was centrifuged for 30 minutes at 13,000 rpm. 200 μL of the supernatant was added to a 96-well plate by using a digital pipette. The solubility of the test compound was determined by high performance liquid chromatography, and the experimental results are shown in Table 2.

hAT2 = molecular target: T1, hAT2 (Homo sapiens, UniProt P50052); assay: hAT2 receptor binding assay (SPA, [125I]-Sar1-Ile8-Angiotensin II); conditions: membrane of HEK-293 cells overexpressing hAT2; 0.1 nM 125I ligand
T1 construct: expressed in transfected cells; host or cells: HEK-293
T1 sequence (P50052 1-363): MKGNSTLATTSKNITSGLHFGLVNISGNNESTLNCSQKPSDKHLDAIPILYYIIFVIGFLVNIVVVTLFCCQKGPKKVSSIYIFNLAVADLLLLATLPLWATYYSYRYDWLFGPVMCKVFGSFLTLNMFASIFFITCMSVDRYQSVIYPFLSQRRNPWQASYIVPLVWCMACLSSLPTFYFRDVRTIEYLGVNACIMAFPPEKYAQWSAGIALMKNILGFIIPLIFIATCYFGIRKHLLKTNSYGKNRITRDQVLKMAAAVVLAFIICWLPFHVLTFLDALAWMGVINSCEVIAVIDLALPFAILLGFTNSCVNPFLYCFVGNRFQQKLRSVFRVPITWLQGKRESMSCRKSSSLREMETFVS
Experimental: hAT2 Receptor Binding Assay
Protease inhibitor mixture, free of ethylenediaminetetraacetic acid-1 tablets (Roche #11873580001) (50 mL plus one piece)
Experimental Methods and Steps
The reference ligand PD123319 and the test compound were prepared into a 750 μM mother liquor by DMSO; each compound was prepared into a solution of 8 concentration gradients (up to a concentration of 750 μM, 3-fold dilution) and 10 μl of the solution was added to a master of a 384-well plate per well.
The SPA beads were prepared to a mother liquor of 25 mg/ml by the buffer;
The isotope [^125I]-Sar1-Ile8-Angiotensin II was prepared into a mother liquor of 50 μCi/ml by adding pure water.
The cell membrane overexpressing hAT2 in HEK-293 cells was prepared to 2.5 mg/ml by the buffer.
200 nl of compound was aspirated from the mother plate with ECHO to each well of the 384-well test plate. ZPE was added to an equal volume of DMSO. (The concentration of the test compound in the reaction was diluted by 250 times).
A 50 ml membrane solution containing 10 μg/μl of magnetic beads and 0.05 μg/μl of AT2 was prepared, placed on a shaker and uniformly mixed. (100 rpm, 30 min). The test plate finally contained an hAT2 membrane with 1.25 μg/well and magnetic beads with 250 μg/well.
A 3.2 ml membrane liquid mixture was added to the compound test plate by using a Multidrop Combi pipette, and 25 μl was added to each well.
A 0.2 nM solution was prepared with 50 μCi/ml of isotope [^125I]-Sar1-Ile8-Angiotensin II mother liquor by the buffer, and 0.2 nM of ^125I was added to the compound test plate with a Multidrop Combi pipette. A volume of 25 μl was added to each well. The final concentration of ^125I isotope is 0.1 nM.
The prepared test plate was placed on a shaker overnight at room temperature at 200 rpm.
The test plate was centrifuged with a centrifuge at 1200 rpm for 1 min.
The centrifuged test plate was read with Microbeta.

Structure (SMILES): N#Cc1ccc2c(c1OCc1ccccc1)C[C@@H](C(=O)O)N(C(=O)[C@H](OC1CCCC1)c1ccccc1)C2 [Compound 111]
- fraction unbound at 4 h [1]: 0.002
- fraction unbound at 4 h [2]: 0.002
- solubility at 24 h [3]: > 200 µM
- pIC50 (hAT2): 7.80
